Reference: patent US8969565B2, “Imidazo[1,2-b]pyridazine-based compounds, compositions comprising them, and methods of their use” (Lexicon Pharmaceuticals, Inc., priority 2012, dated 2015)
Counter-ions that a name gives are not always drawn.

Columns and labels:
[1] = target: T1, AAK1 (Homo sapiens, UniProt Q2M2I8); experiment: HEK281 cell-based assay (phospho-mu2 Western blot in transfected HEK293F cells); conditions: 3 hours incubation, read-out: CBA IC50
T1 construct: HA; expressed in transfected cells; host or cells: HEK293F
In short: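 After 3 hours at 37° C. with compound (five 3-fold-spaced concentrations, DMEM+0.5% FBS), transiently transfected HEK293F cells expressing full-length human AAK1 and Flag-tagged mu2 were lysed. mu2 phosphorylation was read by anti-phospho-mu2 immunoblot, normalized against total mu2 by anti-Flag blot.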

[2] = target: T1, AAK1; experiment: P81 filter plate assay; assay type: biochemical; conditions: full-length human AAK1, Mu2 substrate

T1 sequence (Q2M2I8 1-863 isoform Q2M2I8-2): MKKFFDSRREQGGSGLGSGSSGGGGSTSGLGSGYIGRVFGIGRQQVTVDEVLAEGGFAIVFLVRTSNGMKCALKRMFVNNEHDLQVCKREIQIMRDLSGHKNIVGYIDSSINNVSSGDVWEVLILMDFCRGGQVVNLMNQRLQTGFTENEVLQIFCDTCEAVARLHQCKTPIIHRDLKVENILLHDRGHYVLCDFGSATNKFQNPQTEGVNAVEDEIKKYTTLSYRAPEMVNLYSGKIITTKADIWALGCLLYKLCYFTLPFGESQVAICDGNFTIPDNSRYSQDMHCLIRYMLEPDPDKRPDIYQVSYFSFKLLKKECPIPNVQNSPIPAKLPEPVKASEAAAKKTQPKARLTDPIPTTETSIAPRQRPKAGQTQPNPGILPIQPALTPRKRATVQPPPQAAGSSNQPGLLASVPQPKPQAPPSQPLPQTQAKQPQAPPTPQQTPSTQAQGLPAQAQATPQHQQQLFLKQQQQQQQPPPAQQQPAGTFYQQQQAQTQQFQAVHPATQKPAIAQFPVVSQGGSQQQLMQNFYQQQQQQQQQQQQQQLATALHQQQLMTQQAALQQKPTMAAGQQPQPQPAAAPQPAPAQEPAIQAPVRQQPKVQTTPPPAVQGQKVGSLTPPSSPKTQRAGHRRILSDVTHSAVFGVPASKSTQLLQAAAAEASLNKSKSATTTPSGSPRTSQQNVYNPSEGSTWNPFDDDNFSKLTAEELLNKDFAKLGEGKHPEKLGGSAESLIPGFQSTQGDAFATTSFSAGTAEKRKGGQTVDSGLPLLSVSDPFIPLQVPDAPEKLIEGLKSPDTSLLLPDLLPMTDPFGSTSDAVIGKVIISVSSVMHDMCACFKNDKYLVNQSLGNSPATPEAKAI

melting point	IC50 [1] [nM]	IC50 [2] [nM]	Structure (SMILES)
52 to 54 °C	–	–	CC(C)OC(=O)N1CCN(c2ccc3ncc(Br)n3n2)C(C)C1 (racemic) [Example 5.6.146, Isopropyl 4-(3-bromoimidazo[1,2-b]pyridazin-6-yl)-3-methylpiperazine-1-carboxylate]
144 to 145 °C	–	–	CC(C)OC(=O)N1CCN(c2ccc3ncc(Br)n3n2)CC1C (racemic) [Example 5.6.147, Isopropyl 4-(3-bromoimidazo[1,2-b]pyridazin-6-yl)-2-methylpiperazine-1-carboxylate]
173 to 174 °C	–	–	COc1ccccc1-c1cnc2ccc(N3C[C@H]4C[C@@H]3CN4C(=O)OC(C)C)nn12 (stereo in doubt) (as salt: hydrochloride) [Example 5.6.154, Isopropyl 5-(3-(2-methoxyphenyl)imidazo[1,2-b]pyridazin-6-yl)-2,5-diazabicyclo[2.2.1]heptane-2-carboxylate]
199 to 200 °C	≤ 100	≤ 10	CC(C)(C)NC(=O)N1CCN(c2ccc3ncc(Br)n3n2)CC1 [4-(3-Bromoimidazo[1,2-b]pyridazin-6-yl)-N-(tert-butyl)piperazine-1-carboxamide]
101 to 103 °C (dec.)	≤ 100	≤ 10	CC(C)(C)OC(=O)N1CCN(c2ccc3ncc(-c4ccccc4)n3n2)CC1 [4-(3-Phenyl-imidazo[1,2-b]pyridazin-6-yl)-piperazine-1-carboxylic acid tert-butyl ester]
270 to 271 °C	≤ 1000	–	CCCCNc1ccc2ncc(-c3ccc(-c4nnn[nH]4)cc3)n2n1 [Butyl-{3-[4-(1H-tetrazol-5-yl)-phenyl]-imidazo[1,2-b]pyridazin-6-yl}-mine]
148 to 149 °C	–	–	CC(=O)c1ccc(-c2cnc3ccc(N(C)CCCNC(=O)OC(C)(C)C)nn23)s1 [Example 5.6.27, (3-{[3-(5-Acetyl-thiophen-2-yl)-imidazo[1,2-b]pyridazin-6-yl]-methyl-amino}-propyl)-carbamic acid tert-butyl ester]
253 to 254 °C (dec.)	–	–	CCCCNc1ccc2ncc(-c3ccc(-c4noc(=O)[nH]4)cc3)n2n1 [Example 5.6.49, 3-[4-(6-Butylamino-imidazo[1,2-b]pyridazin-3-yl)-phenyl]-4H-[1,2,4]oxadiazol-5-one]
128 to 129 °C	–	–	CN(CCNc1ccc2ncc(Br)n2n1)C(=O)OC(C)(C)C [Example 5.6.56, [2-(3-Bromo-imidazo[1,2-b]pyridazin-6-ylamino)-ethyl]-methyl-carbamic acid tert-butyl ester]
154 to 155 °C	–	–	CC(C)N(CCNc1ccc2ncc(Br)n2n1)C(=O)OC(C)(C)C [Example 5.6.72, [2-(3-Bromo-imidazo[1,2-b]pyridazin-6-ylamino)-ethyl]-isopropyl-carbamic acid tert-butyl ester]
123 to 124 °C	–	–	CC(C)OC(=O)N1CCN(c2ccc3ncc(Br)n3n2)CC1 [Example 5.6.102, 4-(3-Bromo-imidazo[1,2-b]pyridazin-6-yl)-piperazine-1-carboxylic acid isopropyl ester]
138 to 139 °C	–	–	CC(C)(C)OC(=O)N1CCC[C@H]1CNc1ccc2ncc(I)n2n1 [Example 5.6.107, (S)-2-[(3-Iodo-imidazo[1,2-b]pyridazin-6-ylamino)-methyl]-pyrrolidine-1-carboxylic acid tert-butyl ester]
115 to 116 °C	–	–	COc1cnccc1-c1cnc2ccc(N3CCCN(C(=O)OC(C)(C)C)CC3)nn12 [Example 5.6.121, 4-[3-(3-Methoxy-pyridin-4-yl)-imidazo[1,2-b]pyridazin-6-yl]-[1,4]diazepane-1-carboxylic acid tert-butyl ester]
99 to 101 °C	≤ 1000	–	CCCCN(C)c1ccc2ncc(-c3ccc(CN)cc3)n2n1 [[3-(4-Aminomethyl-phenyl)-imidazo[1,2-b]pyridazin-6-yl]-butyl-methyl-amine]
